Experiment [1] deals with NIHOVCAR3 ovarian adenocarcinoma xenograft model. The experiment can be described thus: In vivo xenograft tumor efficacy study, NIHOVCAR3. The arrangement: species or system mice. Particulars: OVCAR3 xenografts, repeated dosing. Here is the method: (§1) The anti-cancer efficacy of Example 35 was evaluated in xenograft models by measuring the reduction in tumor volume in animals treated with Example 35 compared to vehicle control animals. First, 5-10×10^6 tumor cells/animal in a 1:1 Matrigel® mix (0.2 mL total volume) were injected subcutaneously into female NSG mice (for NIHOVCAR3) and SCID mice (for HCC1569). Both strains of mice were purchased from Jackson Laboratory. Once tumors reached ˜150-200 mm^3, animals were randomized into groups of 8-10 animals/treatment arm for efficacy studies. Example 35 was administered via oral gavage (PO) at indicated doses and regimens (Table 7). Tumor growth and body weight were measured twice/week during the course of the study to evaluate efficacy and signs of toxicity.
(§2) Example 35 was formulated in 10% ethanol, 10% Vitamin E—TPGS, 30% propylene glycol, 50% PEG400 and administered by oral gavage (final volume 0.2 mL) at the doses indicated in Table 7. […]
(§3) The efficacy for each treated arm at different dose levels were calculated using the following formula: % ΔT/ΔC=[(TVT−TVT0)/(TVC−TVC0)]×100%. […] The percentage of tumor growth inhibition was calculated from the formula: % TGI=[100%−(% ΔT/ΔC)]. […]
(§4) Example 35 was evaluated for in vivo single-agent efficacy against the HCC1569 breast carcinoma xenograft model and NIHOVCAR3 ovarian adenocarcinoma xenograft model.

A further experiment relates to pS807/811 Rb1. The experiment can be described thus: Inhibition of RB1 phosphorylation (Western blot) in HCC1569 cells. The experiment is classed as cell-based. Particulars: HCC1569 cancer cells, 24 h, FIG. 1B. As for the experimental part:
The assay measured the ability of the compound to degrade Cyclin E1, inhibit RB phosphorylation, and to determine the selectivity against degradation of GSPT1 in cancer cells in vitro. HCC1569 cells (ATCC #CRL-2330) were cultured in RPMI media (Gibco, catalog A104910) supplemented with 10% FBS (Gibco, catalog 10091148). Cells were plated in tissue culture-treated 6 well plates at a density of 0.5 million cells per well in 2 mL media. The cells were then incubated overnight in a cell culture incubator (5% CO2 and 37° C.) and allowed to attach to the plate. The following day cells were dosed with compounds at the desired concentrations. Compounds were first resuspended in DMSO to make 10 mM stock, and 20 μM stock was prepared by diluting 10 mM stock in culture media. […] Total protein concentration was measured using a BCA assay kit (Thermo Scientific, cat #P123227). […] Protein was then detected by incubating blots with 2 mL of HRP detection reagent (Thermo scientific cat #A38556) for one minute at room temperature. Excess reagent was drained and gently removed on a Kimwipe and the chemiluminescence signal was detected using Fluorchem imaging system. […] Relative quantification of western blots was performed using ImageJ software, data was then normalized to loading control (β-Actin) first and then to the DMSO-treated sample. […]

Experiment [2] deals with HCC1569 breast carcinoma xenograft model. The experiment can be described thus: In vivo xenograft tumor efficacy study, HCC1569. More on the design: species or system mice. Particulars: HCC1569 xenografts, repeated dosing. As for the experimental part:
as §1, §2, §3, §4

On to `COc1c(COC(=O)Nc2ccc(Oc3ccc(F)c(F)c3)cc2)ccc2c1C(=O)N([C@H]1CCC(=O)NC1=O)C2` (single isomer, unassigned) [Example 35, {2-[(3 S)-2,6-dioxopiperidin-3-yl]-4-methoxy-3-oxo-2,3-dihydro-1H-isoindol-5-yl}methyl N-[4-(3,4-difluorophenoxy)phenyl]carbamate], for which the anti-tumor activity entry in experiment [1] and in experiment [2] was “dose-dependent anti-tumor activity” throughout. Further, the “inhibition of RB1 phosphorylation” value in the experiment with pS807/811 Rb1 was “inhibited RB1 phosphorylation”.

The record behind these values is US20250084056A1, “SUBSTITUTED OXOISOINDOLINYL PIPERIDINE-2,6-DIONE COMPOUNDS” (BRISTOL-MYERS SQUIBB COMPANY, priority 2023, published 2025).
